The values that follow are results of earlier work, collected in publication PMC11094875, “Cholecystokinin B receptor agonists alleviates anterograde amnesia in cholecystokinin-deficient and aged Alzheimer's disease mice” (Alzheimer's Research & Therapy, 2024).

Where two headings read alike, the source gives them in different places. A value given as a limit tells only on which side of the number the result lay.

By half-life is commonly meant how long it takes for the measured level to halve.

For data set [1] the following is noted: as stated in the MWM method for the dosing schedule; no reference given.
The conditions of data set [2]: rat plasm ref 31.
The conditions of data set [3]: human plasm ref 31.

With `CSCC[C@H](NC(=O)[C@@H](N)Cc1c[nH]c2ccccc12)C(=O)N[C@@H](CC(=O)O)C(=O)N[C@@H](Cc1ccccc1)C(N)=O` [CCK-4, CCK tetrapeptide], the figures for the half-life result in data set [1], in data set [2] and in data set [3] were “less than 5 min”, less than 1 min and 13 min, respectively.
